Source: article PMC11172478, “1,3,5-Triazine as Branching Connector for the Construction of Novel Antimicrobial Peptide Dendrimers: Synthesis and Biological Characterization” (International Journal of Molecular Sciences, 2024)
Starred links: 1 amine or outer side, 2 acyl side, 3 side chain; linkers in the order of their positions; H or OH if unused. Positions of bridges follow the written chain, without caps; N, C: chain ends. Residues, ends and D or L forms follow the SMILES beside them. Chains are numbered I, II in the order given. X1 = O=C(c1ccc(Oc2nc(NCCN[*:2])nc(NCCN[*:3])n2)cc1)[*:1]

Assays:
E. coli ATCC 25922 = experiment: Atomic force microscopy of treated bacteria; type: cell-based; conditions: E. coli ATCC 25922, dendrimer at MIC, 4 h, 37 °C
Experimental: E. coli ATCC 25922 was grown at 37 °C in Mueller Hinton cation-adjusted broth to an optical density of 0.25 at 625 nm. Dendrimers were added to a starting inoculum of 10^6 CFU/mL and incubated for 4 h at 37 °C with shaking. Untreated E. coli was included as a control. Cells in 1 mL of culture were centrifuged at 5000 rpm for 5 min and washed three times with 1 mL of sterile water. The bacterial cells were then resuspended in 100 µL of sterile water and a 10 µL drop was applied to a freshly cleaved mica surface and allowed to dry for approximately 10 min at room temperature.
The disk surfaces were analyzed by atomic force microscopy using an AFM XE-70 (Park Systems, Suwon, Korea) in non-contact mode with an ACTA 10M cantilever. […] The AFM images were processed using a scanning probe image processor XEI (Park Systems), correcting the plane of the AFM image for any coupling of the lateral plane and the z-axis caused by the instrument.

E. coli 208691 = experiment: Intracellular accumulation of acridine orange; type: cell-based; conditions: E. coli 208691, dendrimers at MIC, ½ MIC, ¼ MIC, AO 0.25 µg/mL, 30 min
Experimental: (§1) The assay was performed as previously described by Armengol et al. including control and clinical strains (E. coli 208691 and P. aeruginosa 666 SJD) previously studied by our group. Briefly, 96-well flat-bottomed microtiter plates (Guangzhou Jet Bio-Filtration Co., Ltd., Mianyang, China) were used. Overnight cultures were diluted in 1/4 Ringer’s solution to an OD520nm of 1.5, and 100 µL was added to the wells previously filled with 100 µL of Ringer’s solution. Acridine Orange (AO) was added to a final concentration of 0.25 µg/mL. The inoculated plates were then incubated for 30 min with shaking, after which the fluorescence was measured in a FLUOstar OPTIMA fluorescence microplate reader (BMG Labtech, Ortenberg, Germany).
(§2) To determine the uptake and accumulation of AO by bacteria, different scenarios were compared. First, bacteria were examined in the presence of PAβN at 20 µg/mL, and then in the presence of different concentrations of the dendrimers at (MIC, ½ MIC, ¼ MIC). The results in each condition were expressed as the percentage increase in fluorescence with respect to the control.

P. aeruginosa ATCC 27853 = experiment: Intracellular accumulation of acridine orange; type: cell-based; conditions: P. aeruginosa ATCC 27853, dendrimers at MIC
Experimental: as §1, §2

[1] = Black lipid bilayers conductance; conditions: DiPhPC/PS 4:1 in n-decane, 1 M KCl, −80, −120 and −180 mV
Experimental: The basic methods have been described previously. Membranes were prepared from 1% lipid a mixture of di-phytanoyl-phosphatidylcholine/di-phytanoylphosphatidylserine (DiPhPC/PS) in a molar ratio of 4:1 in n-decane (Avanti Polar Lipids, Delfzyl, The Netherlands). Bilayers were painted over a 2 mm^2 hole in a Teflon divider separating two compartments containing 5 mL each of a bathing solution of 1MKCl. Voltages were applied across the membrane via calomel electrodes connected by a salt bridge. The resultant current was amplified 10^8-fold by a current amplifier and recorded on a Rikadenski chart recorder. A concentration of 1 μg/mL of the dendrimer was used based on the results of Wu et al..

[2] = system: Hep G2 hepatocellular carcinoma cell line; experiment: Cytotoxicity, resazurin reduction; type: cell-based, human; conditions: HepG2 cells, 24 h, resazurin fluorescence
Experimental: The cytotoxicity assay was performed in the human hepatocellular carcinoma cell line Hep G2 ATCC and murine L-929 fibroblasts (NCTC clone 929, ECACC 88102702) obtained from the laboratory of Dr. Pérez-Tomás (Cancer Cell Biology, University of Barcelona). The cytotoxicity of the selected peptides was determined by measuring the intracellular reduction of resazurin sodium salt (Sigma-Aldrich, St. Louis, MO, USA). Briefly, HepG2 and L-929 cells were grown in RPMI 1640 or MEM medium, respectively (Biochrom AG, Berlin, Germany), supplemented with 10% fetal bovine serum. Cells from pre-confluent cultures were harvested with trypsin-EDTA and maintained at 37 °C in 5% CO2. Then, 100 µL of each cell line was seeded into 96-well flat-bottomed microplates and incubated for 24 h at 37 °C. The medium was then replaced with 200 μL of medium containing the dendrimers at concentrations ranging from 64 to 0.125 μg/mL and the microplates were incubated for 24 h at 37 °C. Next, 20 μL of resazurin was added to each well and the plates were incubated under the same conditions for 24 h. Fluorescence was measured using a multiwell scanning spectrophotometer at an excitation wavelength of 530 nm and an emission wavelength of 590 nm. Cytotoxicity was then calculated by comparing the fluorescence of the treated and untreated cells (Figure S22).

MDR E. coli = type: cell-based; conditions: 24 h
Experimental: (§3) E. coli ATCC 25922, P. aeruginosa ATCC 27853, S. aureus ATCC 29213, P. aeruginosa 666 SJD (ciprofloxacin-resistant), P. aeruginosa P12, P13, P15, P16 and P17 (MDR isolates) and E. coli 7987, 5545, 8248, 13974, 7259 and 208691 (MDR isolates) from our own collection were included in the present study.
(§4) The antimicrobial activity of the dendrimers was evaluated against E. coli ATCC 25922, P. aeruginosa ATCC 27853 and S. aureus ATCC 29213 strains. The MIC values were determined by the broth microdilution method. Briefly, the different strains were grown in Muller Hinton broth cation adjusted (MHBCA) medium overnight at 37 °C with shaking at 200 rpm. The bacterial cultures were then adjusted to OD625nm of 0.08–0.1, and 5 μL of each diluted suspension was added to 96-well plates previously filled with MHBCA and serially diluted peptides. Plates were incubated for 24 h at 37 °C. Finally, the MIC was determined macroscopically, based on the visual turbidity of the wells.

MDR P. aeruginosa = type: cell-based; conditions: 24 h
Experimental: as §3, §4

CC(C)C[C@H](NC(=O)c1ccc(Oc2nc(NCCNC(=O)[C@H](CCCCN)NC(=O)[C@H](CC(C)C)NC(=O)[C@H](CCCCN)NC(=O)[C@H](CC(C)C)NC(=O)[C@H](CCCCN)NC(=O)[C@@H](N)CC(C)C)nc(NCCNC(=O)[C@H](CCCCN)NC(=O)[C@H](CC(C)C)NC(=O)[C@H](CCCCN)NC(=O)[C@H](CC(C)C)NC(=O)[C@H](CCCCN)NC(=O)[C@@H](N)CC(C)C)n2)cc1)C(=O)N[C@@H](CCCCN)C(=O)N[C@@H](CC(C)C)C(=O)N[C@@H](CCCCN)C(=O)N[C@@H](CC(C)C)C(=O)N[C@@H](CCCCN)C(N)=O [Dendrimer 1, H-[(LK)3]2-(EDA)2-TA-PHBA-(LK)3-NH2] (I: LKLKLK-NH2 / II: H-LKLKLK / III: H-LKLKLK; linker I:N-II:C-III:C via X1)
bacterial surface alteration by AFM (in words) (E. coli ATCC 25922): significant surface damages
AO accumulation (in words) (E. coli 208691): marked increase in AO accumulation
AO accumulation (in words) (P. aeruginosa ATCC 27853): slight increase in AO accumulation
channel formation in planar lipid bilayers (conductance) [1]: did not induce membrane channels
% Cytotoxicity at 64µg/mL, HepG2 [2]: 0%

CC(C)C[C@H](NC(=O)[C@H](CCCCN)NC(=O)[C@H](CC(C)C)NC(=O)[C@H](CCCCN)NC(=O)[C@H](CC(C)C)Nc1nc(NCCNC(=O)[C@H](CCCCN)NC(=O)[C@H](CC(C)C)NC(=O)[C@H](CCCCN)NC(=O)[C@H](CC(C)C)NC(=O)[C@H](CCCCN)NC(=O)[C@@H](N)CC(C)C)nc(NCCNC(=O)[C@H](CCCCN)NC(=O)[C@H](CC(C)C)NC(=O)[C@H](CCCCN)NC(=O)[C@H](CC(C)C)NC(=O)[C@H](CCCCN)NC(=O)[C@@H](N)CC(C)C)n1)C(=O)N[C@@H](CCCCN)C(N)=O [Dendrimer 2, H-[(LK)3-EDA]2-TA-(LK)3-NH2]
bacterial surface alteration by AFM (in words) (E. coli ATCC 25922): significant surface damages
MIC values in MDR E. coli (span over isolates) (MDR E. coli): 2 to 8 µg/mL
MIC values in MDR P. aeruginosa (span over isolates) (MDR P. aeruginosa): 16 to 32 µg/mL
channel formation in planar lipid bilayers (conductance) [1]: did not induce membrane channels
% Cytotoxicity at 64µg/mL, HepG2 [2]: 0%
